Target: T1, androgen receptor (AR) (Rattus norvegicus, UniProt P15207)
T1 construct: Ventral prostates were obtained form rats castrated 24 h prior to sacrifice; from tissue; host or cells: rat ventral prostate cytosol (castrated rats, charcoal-treated)
T1 sequence (P15207 1-902): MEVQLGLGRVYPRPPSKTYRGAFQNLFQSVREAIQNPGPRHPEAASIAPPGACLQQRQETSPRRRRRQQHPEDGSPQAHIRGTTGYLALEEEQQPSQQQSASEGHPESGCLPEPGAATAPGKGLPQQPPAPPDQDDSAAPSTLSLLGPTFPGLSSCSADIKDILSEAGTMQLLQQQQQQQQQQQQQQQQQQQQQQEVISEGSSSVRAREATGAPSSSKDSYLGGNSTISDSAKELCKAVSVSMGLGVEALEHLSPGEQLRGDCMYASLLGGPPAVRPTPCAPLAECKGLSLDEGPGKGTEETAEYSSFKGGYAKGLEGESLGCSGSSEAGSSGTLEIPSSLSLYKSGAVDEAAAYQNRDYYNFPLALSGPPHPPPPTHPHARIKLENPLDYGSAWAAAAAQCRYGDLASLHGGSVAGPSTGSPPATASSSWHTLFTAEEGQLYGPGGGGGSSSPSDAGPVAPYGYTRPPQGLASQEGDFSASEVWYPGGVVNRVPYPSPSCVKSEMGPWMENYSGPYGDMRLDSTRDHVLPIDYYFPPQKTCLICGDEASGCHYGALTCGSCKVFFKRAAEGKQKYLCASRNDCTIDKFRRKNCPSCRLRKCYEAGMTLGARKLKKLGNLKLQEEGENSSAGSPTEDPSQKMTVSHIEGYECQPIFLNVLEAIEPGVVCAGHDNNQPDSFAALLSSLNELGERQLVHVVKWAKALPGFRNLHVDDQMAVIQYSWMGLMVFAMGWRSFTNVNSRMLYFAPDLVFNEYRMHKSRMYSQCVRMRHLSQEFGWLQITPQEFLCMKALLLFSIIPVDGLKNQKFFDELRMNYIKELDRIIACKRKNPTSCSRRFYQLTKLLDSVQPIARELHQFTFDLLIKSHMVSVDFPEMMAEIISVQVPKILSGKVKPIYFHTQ
Assay: AR binding assay, competition with [3H]-mibolerone binding in rat ventral prostate cytosol
Conditions: 1 nM [3H]-mibolerone, overnight at 0° C.; for inhibition at 0.2 µM: test compound 0.2 μM; for inhibition at 2 µM: test compound 2.0 μM
Description: Ventral prostates were obtained form rats castrated 24 h prior to sacrifice. Fresh prostate was minced and washed with Buffer A (Schilling and Liao, Prostate, 5:581-588, 1984). The minces were then homogenized in 3× volume of Buffer A containing protease inhibitors (Complete, Mini, EDTA-free Roche). The homogenate was centrifuged at 30000 g for 30 min. The resultant supernatants were treated with 1×volume of dextran-coated charcoal solution (12.5 g activated charcoal, 12.5 g dextran per liter of buffer A) to remove endogenous steroids. The samples were incubated for 5 min and centrifuged at 16000 g for 10 min. Aliquots of the charcoal-treated cytosol were taken for androgen receptor assays. All procedures were carried out at 0-4° C.
Cytosol androgen receptor concentration was determined as described (Isomaa et al., Endocrinology, 111: 833-843, 1982) with minor modifications. Cytosol preparations were prepared as described above, and bound and free steroids were separated by treatment with an equal volume of dextran-charcoal suspension for 5 min at 4° C. followed by centrifugation at 16000 g for 10 min. Bound radioactivity was determined by counting supernatant fractions in 1 ml of OptiPhase HiSafe3 or OptiPhase Supermix (PerkinElmer).
Cytosol preparations were labelled with 1 nM [^3H]-mibolerone overnight at 0° C. (total). To determine AR binding activity of the compounds of the present invention (test compounds), the ability of test compounds to compete with [^3H]7α,17α-dimethyl-17β-hydroxy-4-estren-3-one ([^3H]-mibolerone) binding was studied. 1 nM [^3H]-mibolerone and test compounds in two concentrations (0.2 and 2 uM) were incubated overnight at 0° C. To determine non-specific binding, parallel incubations were carried out using 1 nM concentration [^3H]-mibolerone with 500-fold molar excess of unlabelled testosterone. Two to four replicates were used for each sample. After incubation, bound and free steroids were separated as described above and bound radioactivity was determined. The ability of the test compounds to bind AR is reported as reduction in bound radioactivity obtained with 1 nM [^3H]-mibolerone. The results (% inhibition) were calculated as: % inhibition=100−(100×(averagetest compound/averagetotal)).

For `CC(=O)Nc1ccc(OCC(C)(O)C(=O)Nc2ccc([N+](=O)[O-])c(C)c2)cc1` (centres unmarked) [Example 1, 3-(4-Acetylaminophenoxy)-2-hydroxy-2-methyl-N-(3-methyl-4-nitrophenyl)propionamide], the inhibition at 0.2 µM was 91% and the inhibition at 2 µM was 101%.

`CC(=O)Nc1ccc(OCC(C)(O)C(=O)Nc2ccc([N+](=O)[O-])c(C)c2)cc1F` (centres unmarked) [Example 2, 3-(4-Acetylamino-3-fluorophenoxy)-2-hydroxy-2-methyl-N-(3-methyl-4-nitrophenyl)propionamide] showed an inhibition at 0.2 µM of 93% and an inhibition at 2 µM of 100%.

Work on `CC(=O)Nc1ccc(OC[C@](C)(O)C(=O)Nc2ccc([N+](=O)[O-])c(C)c2)cc1F` [Example 4, (2S)-3-(4-Acetylamino-3-fluorophenoxy)-2-hydroxy-2-methyl-N-(3-methyl-4-nitrophenyl)propionamide] yielded an inhibition at 0.2 µM of 90% and an inhibition at 2 µM of 88%.

Work on `Cc1cc(NC(=O)C(C)(O)COc2ccc(C(N)=O)cc2)ccc1[N+](=O)[O-]` (centres unmarked) [Example 5, 4-[2-Hydroxy-2-(3-methyl-4-nitrophenylcarbamoyl)propoxy]benzamide] yielded an inhibition at 0.2 µM of 25% and an inhibition at 2 µM of 74%.

For `Cc1cc(NC(=O)C(C)(O)COc2ccc(Cl)c(Cl)c2)ccc1[N+](=O)[O-]` (centres unmarked) [Example 6, 3-(3,4-Dichlorophenoxy)-2-hydroxy-2-methyl-N-(3-methyl-4-nitrophenyl)propionamide], the inhibition at 0.2 µM was 68% and the inhibition at 2 µM was 95%.

Work on `CCOC(=O)c1ccc(OCC(C)(O)C(=O)Nc2ccc([N+](=O)[O-])c(C)c2)cc1` (centres unmarked) [Example 7, 4-[2-Hydroxy-2-(3-methyl-4-nitrophenylcarbamoyl)propoxy]benzoic acid ethyl ester] yielded an inhibition at 0.2 µM of 74% and an inhibition at 2 µM of 98%.

With `Cc1cc(NC(=O)C(C)(O)COc2ccc(F)c(Cl)c2)ccc1[N+](=O)[O-]` (centres unmarked) [Example 8, 3-(3-Chloro-4-fluorophenoxy)-2-hydroxy-2-methyl-N-(3-methyl-4-nitrophenyl)propionamide] the inhibition at 0.2 µM was 93% and the inhibition at 2 µM was 109%.

In the case of `Cc1cc(NC(=O)C(C)(O)COc2ccc(OC(F)(F)F)cc2)ccc1[N+](=O)[O-]` (centres unmarked) [Example 9, 2-Hydroxy-2-methyl-N-(3-methyl-4-nitrophenyl)-3-(4-trifluoromethoxyphenoxy)propionamide], the inhibition at 0.2 µM is reported as 41% and the inhibition at 2 µM is reported as 102%.

For `Cc1cc(NC(=O)C(C)(O)COc2cccc(Cl)c2Cl)ccc1[N+](=O)[O-]` (centres unmarked) [Example 10, 3-(2,3-Dichlorophenoxy)-2-hydroxy-2-methyl-N-(3-methyl-4-nitrophenyl)propionamide], the inhibition at 0.2 µM was 5% and the inhibition at 2 µM was 83%.

For `Cc1cc(NC(=O)C(C)(O)COc2ccc(F)cc2)ccc1[N+](=O)[O-]` (centres unmarked) [Example 11, 3-(4-Fluorophenoxy)-2-hydroxy-2-methyl-N-(3-methyl-4-nitrophenyl)propionamide], the inhibition at 0.2 µM was 98% and the inhibition at 2 µM was 105%.

For `Cc1ccc(OCC(C)(O)C(=O)Nc2ccc([N+](=O)[O-])c(C)c2)cc1` (centres unmarked) [Example 12, 2-Hydroxy-2-methyl-N-(3-methyl-4-nitrophenyl)-3-p-tolyloxypropionamide], the inhibition at 0.2 µM was 77% and the inhibition at 2 µM was 101%.

`Cc1cc(NC(=O)C(C)(O)COc2ccc(NC(=O)C(F)(F)F)cc2)ccc1[N+](=O)[O-]` (centres unmarked) [Example 13, 2-Hydroxy-2-methyl-N-(3-methyl-4-nitrophenyl)-3-[4-(2,2,2-trifluoroacetylamino)phenoxy]propionamide] showed an inhibition at 0.2 µM of 77% and an inhibition at 2 µM of 90%.

Work on `Cc1cc(NC(=O)C(C)(O)COc2ccccc2)ccc1[N+](=O)[O-]` (centres unmarked) [Example 14, 2-Hydroxy-2-methyl-N-(3-methyl-4-nitrophenyl)-3-phenoxypropionamide] yielded an inhibition at 0.2 µM of 75% and an inhibition at 2 µM of 95%.

In the case of `Cc1cc(NC(=O)C(C)(O)COc2ccc(C(F)(F)F)cc2)ccc1[N+](=O)[O-]` (centres unmarked) [Example 15, 2-Hydroxy-2-methyl-N-(3-methyl-4-nitrophenyl)-3-(4-trifluoromethylphenoxy)propionamide], the inhibition at 0.2 µM is reported as 46% and the inhibition at 2 µM is reported as 77%.

For `CC(=O)c1ccc(OCC(C)(O)C(=O)Nc2ccc([N+](=O)[O-])c(C)c2)cc1` (centres unmarked) [Example 16, 3-(4-Acetylphenoxy)-2-hydroxy-2-methyl-N-(3-methyl-4-nitrophenyl)propionamide], the inhibition at 0.2 µM was 50% and the inhibition at 2 µM was 91%.

Work on `Cc1cc(NC(=O)C(C)(O)COc2ccc(C#N)cc2)ccc1[N+](=O)[O-]` (centres unmarked) [Example 17, 3-(4-Cyanophenoxy)-2-hydroxy-2-methyl-N-(3-methyl-4-nitrophenyl)propionamide] yielded an inhibition at 0.2 µM of 95% and an inhibition at 2 µM of 98%.

`Cc1cc(NC(=O)C(C)(O)COc2cccc(F)c2)ccc1[N+](=O)[O-]` (centres unmarked) [Example 18, 3-(3-Fluorophenoxy)-2-hydroxy-2-methyl-N-(3-methyl-4-nitrophenyl)propionamide] gave an inhibition at 0.2 µM of 90% and an inhibition at 2 µM of 99%.

In the case of `Cc1cc(NC(=O)C(C)(O)COc2ccccc2F)ccc1[N+](=O)[O-]` (centres unmarked) [Example 19, 3-(2-Fluorophenoxy)-2-hydroxy-2-methyl-N-(3-methyl-4-nitrophenyl)propionamide], the inhibition at 0.2 µM is reported as 83% and the inhibition at 2 µM is reported as 99%.

`Cc1cc(NC(=O)C(C)(O)COc2ccc(CCO)cc2)ccc1[N+](=O)[O-]` (centres unmarked) [Example 20, 2-Hydroxy-3-[4-(2-hydroxyethyl)phenoxy]-2-methyl-N-(3-methyl-4-nitrophenyl)propionamide] was tested, and the inhibition at 0.2 µM was 13% and the inhibition at 2 µM was 83%.

`Cc1cc(NC(=O)C(C)(O)COc2c(Cl)cccc2Cl)ccc1[N+](=O)[O-]` (centres unmarked) [Example 21, 3-(2,6-Dichlorophenoxy)-2-hydroxy-2-methyl-N-(3-methyl-4-nitrophenyl)propionamide] showed an inhibition at 0.2 µM of 26% and an inhibition at 2 µM of 91%.

With `Cc1cc(NC(=O)C(C)(O)COc2ccc(Cl)cc2)ccc1[N+](=O)[O-]` (centres unmarked) [Example 23, 3-(4-Chlorophenoxy)-2-hydroxy-2-methyl-N-(3-methyl-4-nitrophenyl)propionamide] the inhibition at 0.2 µM was 88% and the inhibition at 2 µM was 92%.

Work on `Cc1cc(NC(=O)C(C)(O)COc2ccc(Br)cc2)ccc1[N+](=O)[O-]` (centres unmarked) [Example 24, 3-(4-Bromophenoxy)-2-hydroxy-2-methyl-N-(3-methyl-4-nitrophenyl)propionamide] yielded an inhibition at 0.2 µM of 75% and an inhibition at 2 µM of 93%.

`COc1ccc(OCC(C)(O)C(=O)Nc2ccc([N+](=O)[O-])c(C)c2)cc1` (centres unmarked) [Example 25, 2-Hydroxy-3-(4-methoxyphenoxy)-2-methyl-N-(3-methyl-4-nitrophenyl)propionamide] showed an inhibition at 0.2 µM of 96% and an inhibition at 2 µM of 98%.

Compound `Cc1cc(NC(=O)C(C)(O)COc2ccc3c(c2)OCO3)ccc1[N+](=O)[O-]` (centres unmarked) [Example 26, 3-(Benzo[1,3]dioxol-5-yloxy)-2-hydroxy-2-methyl-N-(3-methyl-4-nitrophenyl)propionamide] has an inhibition at 0.2 µM of 62% and an inhibition at 2 µM of 92%.

For `COc1ccc(OCC(C)(O)C(=O)Nc2ccc([N+](=O)[O-])c(C)c2)cc1OC` (centres unmarked) [Example 27, 3-(3,4-Dimethoxyphenoxy)-2-hydroxy-2-methyl-N-(3-methyl-4-nitrophenyl)propionamide], the inhibition at 0.2 µM was 34% and the inhibition at 2 µM was 89%.

Reference: patent publication US7390923B2, “Propionamide derivatives useful as androgen receptor modulators” (Orion Corporation, priority 2003, dated 2008)
